Data as given in patent US20070135375A1, “Sulfamoyl sulfonate prodrugs” (priority 2005, published 2007).
Like-named read-outs stand apart in the source and are kept apart here.

What was measured:
[1] = Solubility in water (kinetic nephelometry / thermodynamic HPLC); assay type: physicochemical; conditions: for solubility: 25 °C, aqueous buffer
Description: The compounds according to the invention were measured as 10 mmol DMSO solution in a 0.01 M phosphate buffer solution at pH 7.4 and 25° C. with nephelometry and turbidity.
While in a turbid state, the solution to be tested was added drop by drop to the buffer solution until a precipitate settled.
The precipitate was detected in a dilution series (compounds in a phosphate buffer solution according to the invention) by nephelometry.
b.) Thermodynamic Measurement:
The compounds in solid form according to the invention were added to an excess of an aqueous buffer system of various pH values. It was stirred 24 hours at 25° C. After centrifuging, the solution was examined with HPLC (HPLC: column: Xterra MS C18 2.5 μm, 30×4.6 mm).

[2] = target: human carbonic anhydrase II (Homo sapiens, UniProt P00918); test: Carbonic anhydrase inhibition, photometric, nitrophenyl acetate conversion (CA II); assay type: biochemical
Text: (§1) Photometric determination of the inhibition of human carbonic anhydrase I or II with sulfonamides or sulfamates on microtiter plates with the aid of enzymatic conversion of nitrophenyl acetate with a color change from colorless to yellow.

[3] = target: human carbonic anhydrase I (Homo sapiens, UniProt P00915); test: Carbonic anhydrase inhibition, photometric, nitrophenyl acetate conversion (CA I); assay type: biochemical
Text: as §1

[4] = Hydrolysis in aqueous buffer of various pH values at 37° C., HPLC; assay type: physicochemical
Description: The compounds according to the invention were measured as a DMSO solution in an aqueous buffer of various pH values at 37° C.
(§2) The quantification took place through HPLC (HPLC column: Xterra MS C18 2.5 μm 4.6×30 mm). Based on the test substances to be measured, the following gradient system was used for the HPLC: • Acidic gradient: A: water/0.01% trifluoroacetic acid, B: acetonitrile/0.01% trifluoroacetic acid—0 min 5% B, 0-3 min 65% B, 3-5 min 65% B, 5-6 min 5% B • Alkaline gradient: A: water/0.025% ammonia, B: acetonitrile/0.025% ammonia—0 min 20% B, 0-3 min 80% B, 3-5 min 80% B, 5-6 min 20% B. The quantification took place after 1 and 2 hours and after 24 hours.

[5] = Stability in simulated gastric juice (NaCl solution with pepsin, pH~1.2), HPLC; assay type: physicochemical; conditions: 30 min, 37° C., column head pH = 1, cells note pH = 1.2 (gastric juice)
Description: as §2, with “hours. Stability in Simulated Gastric Juice:” for “hours.”
Solutions of the compounds according to the invention were incubated at 37° C. in simulated gastric juice (aqueous NaCl solution with pepsin, pH˜1.2).
The quantification took place through HPLC (HPLC-column: Xterra MS C18 2.5 μm 4.6×30 mm) using the gradient system: […]
A: water/0.01% trifluoroacetic acid, B: acetonitrile/0.01% trifluoroacetic acid—0 min 5% B, 0-3 min 65% B, 3-5 min 65% B, 5-6 min 5% B.
The quantification took place after 0.5, 1, 1.5 and 2 hours.

[6] = human carbonic anhydrase II, read-out: CA II IC50
[7] = human carbonic anhydrase I, read-out: CA I IC50

Chain of human carbonic anhydrase I (P00915 whole entry): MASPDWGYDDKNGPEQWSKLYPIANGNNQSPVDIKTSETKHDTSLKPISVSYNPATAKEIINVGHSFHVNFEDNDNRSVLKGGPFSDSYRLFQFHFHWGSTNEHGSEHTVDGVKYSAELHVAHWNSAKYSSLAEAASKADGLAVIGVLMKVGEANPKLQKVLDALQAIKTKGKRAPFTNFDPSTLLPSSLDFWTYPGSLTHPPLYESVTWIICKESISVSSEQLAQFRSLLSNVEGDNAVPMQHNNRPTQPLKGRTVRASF

C[C@@H]1CC2=CC(=O)CC[C@]2(C)[C@H]2CC[C@]3(C)[C@@H](OS(=O)(=O)c4cccc(S(N)(=O)=O)c4)CC[C@H]3[C@H]12 [3-oxo-7α-methylandrost-4-en-17β-yl 3′-sulfamoylphenyl sulfonate]
Solubility in Water [1]: About 6 mg/l
IC50 [2, 6]: 0.12 µM
IC50 [3, 7]: 2.3 µM
Decomposition in % ([4]; pH = 1, 37° C., 1 h): 6%
Decomposition in % ([4]; pH = 1, 37° C., 2 h): 11%
Decomposition in % ([4]; pH = 1, 37° C., 24 h): 71%
Decomposition in % ([4]; pH = 7.4, 37° C., 1 h): 6%
Decomposition in % ([4]; pH = 7.4, 37° C., 2 h): 11%
Decomposition in % ([4]; pH = 7.4, 37° C., 24 h): 70%

C[C@]12CC[C@H]3[C@@H](CCC4=CC(=O)CC[C@@]43C)[C@@H]1CC[C@@H]2OS(=O)(=O)c1cccc(S(N)(=O)=O)c1 [3-Oxo-androst-4-en-17β-yl 3′-sulfamoylphenyl Sulfonate]
solubility [1]: 5 µg/mL
IC50 [2]: 0.12 µM
Decomposition in % [5]: 3%
IC50 [3]: 2.3 µM
Decomposition in % ([4]; pH = 1, 37° C., 1 h): 6%
Decomposition in % ([4]; pH = 1, 37° C., 2 h): 11%
Decomposition in % ([4]; pH = 1, 37° C., 24 h): 78%
Decomposition in % ([4]; pH = 7.4, 37° C., 1 h): 6%
Decomposition in % ([4]; pH = 7.4, 37° C., 2 h): 12%
Decomposition in % ([4]; pH = 7.4, 37° C., 24 h): 75%

C[C@]12CC[C@@H]3c4ccc(OS(N)(=O)=O)cc4CC[C@H]3[C@@H]1CC[C@@H]2O [Estradiol-3-sulfamat, Estradiol-3-sulfamate, reference compound]
IC50 [2, 6]: 0.034 µM
IC50 [3, 7]: 0.157 ± 0.0106 µM

Zidovudine-sulfamoylphenyl Sulfonate [Zidovudinsulfonat]
IC50 [2, 6]: 1.1 µM
IC50 [3, 7]: 2.9 µM

C[C@]12CC[C@@H]3c4ccc(O)cc4CC[C@H]3[C@@H]1CC[C@@H]2OS(=O)(=O)c1cccc(S(N)(=O)=O)c1 [3-Hydroxyestra-1,3,5(10)-trien-17β-yl 3′-sulfamoylphenyl Sulfonate]
solubility [1]: 3 µg/mL
IC50 [2, 6]: 0.081 µM
Decomposition in % [5]: 4%
IC50 [3, 7]: 1.7 µM
Decomposition in % ([4]; pH = 1, 37° C., 1 h): 7%
Decomposition in % ([4]; pH = 1, 37° C., 2 h): 14%
Decomposition in % ([4]; pH = 1, 37° C., 24 h): 80%
Decomposition in % ([4]; pH = 7.4, 37° C., 1 h): 6%
Decomposition in % ([4]; pH = 7.4, 37° C., 2 h): 13%
Decomposition in % ([4]; pH = 7.4, 37° C., 24 h): 84%

CCC(=O)O[C@H]1CC[C@H]2[C@@H]3CCC4=CC(=O)CC[C@]4(C)[C@H]3CC[C@]12C [Testosterone Propionate, 3-Oxoandrost-4-en-17β-yl n-propionate, reference compound]
Solubility in Water (in words) [1]: insoluble
Decomposition in % [5]: 0%
Decomposition in % ([4]; pH = 1, 37° C., 1 h): 0%
Decomposition in % ([4]; pH = 1, 37° C., 2 h): 0%
Decomposition in % ([4]; pH = 1, 37° C., 24 h): 0%
Decomposition in % ([4]; pH = 7.4, 37° C., 1 h): 0%
Decomposition in % ([4]; pH = 7.4, 37° C., 2 h): 0%
Decomposition in % ([4]; pH = 7.4, 37° C., 24 h): 0%
